Data from patent US20210323918A1, “COMPOSITIONS AND METHODS FOR SUPPRESSING AND/OR TREATING A GROWTH RELATED DISEASE AND/OR A CLINICAL CONDITION THEREOF” (CK Biotech Inc., priority 2018, published 2021).

Assays:
[1] = tested on: TOPFlash Wnt reporter activity; experiment: TOPFlash Wnt reporter assay in HEK293-TOP cells; assay type: cell-based; settings: 18 hours, FIG. 4D
Procedure: Reporter assay. HEK293-TOP cells were seeded into each well of a 24-well plate. The cells were treated with individual compounds at indicated concentration and cultured for 18 hours. The cells were then harvested and lysed in 60 μl of Reporter Lysis Buffer (Promega, Madison, Wis.) according to the manufacturer's instructions. After centrifugation, 20 μl of the supernatant was used to measure luciferase activity. Relative luciferase activities were normalized to that of the DMSO-treated control.

[2] = tested on: growth plates of proximal tibiae of mice; experiment: Growth plate senescence and longitudinal bone growth in mice; assay type: in vivo
Procedure: Animals. Cxxc5^−/− mice were established in a previous study. See e.g., Kim H. Y. et al. (2015), CXXC5 is a negative feedback regulator of the Wnt/beta-catenin pathway involved in osteoblast differentiation. CELL DEATH DIFFER 22: 912-920. To manipulate growth plate senescence by estrogen, 3-week-old […] Cxxc5^−/− male mice received weekly intramuscular (i.m.) injections of either 70 μg/kg estradiol (E2) cypionate (Sigma-Aldrich) or vehicle (cottonseed oil) for 3 weeks. To investigate the effects of KY19382 treatment on longitudinal bone growth, C57BL/6 male mice were purchased from KOATECH (Gyeonggido, Korea). KY19382 (0.1 ing/kg) was administered daily by intraperitoneal (i.p.) injection to 3- and 7-week-old mice for 2 weeks or to 3-week-old mice for 10 weeks. For BrdU labeling experiments, mice were i.p. injected with 50 mg/kg BrdU (Sigma-Aldrich) before 24 hours to sacrifice. All animal procedures were approved by the Institutional Animal Care and Use Committee (IACUC) of Yonsei University (Korea) and conducted based on the guidelines of the Korean Food and Drug Administration.
Radiographic and histochemical analyses. Plain radiographs were taken using an X-ray apparatus (KODAK DXS 4000 Pro SYSTEM; Carestream Health Rochester, N.Y.). The tissues were fixed in 4% paraformaldehyde (PFA), decalcified in 10% EDTA (pH 7.4), dehydrated, embedded in paraffin, and sectioned to 4 μm thickness (Leica Microsystems, Wetzlar, Germany). The tissues sections were rehydrated and used for further analyses including H&E, TRAP, and itnmunohistochemical (IHC) staining. To perform IHC staining, the sections were incubated with citrate buffer (pH 6.0) at 80° C. for 30 minutes, with 0.05% trypsin working solution (pH 7.8) for 30 minutes at 37° C., or with 0.5% pepsin (Sigma-Aldrich) for 15 minutes at 37° C. Then, the sections were blocked with 5% normal goat serum (NGS; Vector Laboratories, Burlingame, Calif.) and 0.3% triton-x-100 in PBS for 1 hour at room temperature. For 3,3′-diaminobensidine (DAB) staining, the sections were incubated with 0.345% H2O2 for 15 minutes. Before incubating the sections with mouse primary antibody, mouse IgG was blocked using a M.O.M kit (Vector Laboratories). The sections were incubated at 4° C. overnight with the following primary antibodies: anti-β-catenin (BD Bioscience, San Jose, Calif., #610154; 1:50), anti-CXXC5 l (1:200; lab-made) anti-BrdU (DAKO, Carpinteria, Calif., M0744; 1:200), anti-COL2A1 (ThermoFisher Scientific, MA, PAS-11462; 1:100), anti-Ki67 (Abcam, Cambridge, UK, ab15580; 1:200), and anti-RUNX2 (Abeam, ab23981; 1:200). Then, the sections were incubated at room temperature for 1 hour with biotinylated anti-mouse (Vector Laboratories, BA-9200; 1:200) or biotinylated anti-rabbit (Vector Laboratories, BA-1000; 1:200) secondary antibodies. The sections were then incubated in avidin-biotin complex solutions (Vector Laboratories), stained with a DAB kit (Vector Laboratories) for 3-30 minutes, and counterstained with methyl green (Sigma-Aldrich). All incubations were conducted in humid chambers. […] For fluorescence staining, the sections were incubated with primary antibody at 4° C. overnight, followed by incubation with anti-mouse Alexa Fluor 488 (ThermoFisher Scientific, A11008; 1:200) or anti-rabbit Alex Fluor 555 (ThermoFisher Scientific, A21428; 1:200) secondary antibodies at room temperature for 1 hour. The sections were then counterstained with DAPI (Sigma-Aldrich) for 5 minutes and mounted in Gel/Mount media (Biomeda Corporation). All incubations were conducted in dark humid chambers. The fluorescent signals were visualized using a LSM700 META confocal microscope (Carl Zeiss Inc., Thornwood, N.Y.) at excitation wavelengths of 488 nm (Alexa Fluor 488), 543 nm (Alexa Fluor 555), and 405 nm (DAPI).
Immunoblot analyses. […] Protein samples were separated on a 8-12% sodium dodecylsulfate polyacrylamide gel electrophoresis (SDS-PAGE) and transferred to a nitrocellulose membrane (Whatman). […]

[3] = 3-week-old mice, 0.1 mg/kg daily for 2 weeks
[4] = 7-week-old mice, 0.1 mg/kg i.p. daily for 2 weeks

Molecule: CO/N=C1/C(=C2/C(=O)Nc3cc(Cl)c(Cl)cc32)Nc2ccccc21 [KY19382, 5,6-dichloroindirubin-3′-methoxime]
- TOPFlash Wnt reporter activity [1]: strong enhancement
- length of tibiae ([2]; 0.1 mg/kg daily for 10 weeks, mice from 3 to 13 weeks of age, vs vehicle): significantly increased
- height of each growth plate zone and BrdU-positive cells [2, 3]: elevated
- β-catenin-expressing chondrocytes [2, 3]: increased
- number of TRAP-positive foci in the growth plate/trabecular interface ([2]; 3-week-old mice, 0.1 mg/kg daily for 2 weeks, vs vehicle): not different
- nuclear β-catenin in growth plate chondrocytes [2, 4]: dramatically increased
- numbers of proliferative and hypertrophic chondrocytes per column (BrdU- and RUNX2-positive cells) [2, 4]: increased numbers
- total growth plate height, monitored by COL2A1 immunostaining [2, 4]: significantly increased
- β-catenin and chondrogenic markers (COL2A1, RUNX2, MMP13) in the growth plate, immunoblot [2, 4]: increased
- TRAP-positive foci ([2]; mice treated from 7 to 9 weeks of age, 0.1 mg/kg, vs vehicle): elevated

Molecule: 17β-estradiol [Compound E2]
- structural senescence of the tibial growth plate ([2]; Cxxc5−/− mice, E2 cypionate 70 μg/kg i.m. once a week for 3 weeks): hardly observed
